Reference: ChEMBL document CHEMBL1212933, “Alcoholysis of naturally occurring imides: misleading interpretation of antifungal activities” (J Nat Prod, 2010)
≈ marks a conversion by molar mass, not a printed value.

How the values were obtained:
Cladosporium herbarum = assay: Antifungal activity against Cladosporium herbarum; type: functional, organism-based
Penicillium griseofulvum = assay: Antifungal activity against Penicillium griseofulvum; type: functional, organism-based

EC50 (Cladosporium herbarum): 0.9 µg/mL (≈ 3.61 µM)
EC50 (Penicillium griseofulvum): 3 µg/mL (≈ 12 µM)
SMILES: CS/C=C/C(=O)N(C)C(=O)Cc1ccccc1 [PENIMIDE A]
